target: T1, ATM (Homo sapiens, UniProt Q13315); experiment: ATM inhibition test (phosphorylation of Chk2 generated by ionizing radiation, AlphaScreen SureFire); assay type: cell-based; settings: phosphorylated Chk2 in NCI-H460 cells, ionizing radiation 8Gy, 1 hour after test compound treatment; read-out: ATM inhibitory activity
T1 construct: detecting phosphorylation of Chk2 in a human non-small cell lung cancer cell line NCI-H460 (ATCC company); host or cells: NCI-H460 human non-small cell lung cancer cells
T1 sequence (Q13315 whole entry): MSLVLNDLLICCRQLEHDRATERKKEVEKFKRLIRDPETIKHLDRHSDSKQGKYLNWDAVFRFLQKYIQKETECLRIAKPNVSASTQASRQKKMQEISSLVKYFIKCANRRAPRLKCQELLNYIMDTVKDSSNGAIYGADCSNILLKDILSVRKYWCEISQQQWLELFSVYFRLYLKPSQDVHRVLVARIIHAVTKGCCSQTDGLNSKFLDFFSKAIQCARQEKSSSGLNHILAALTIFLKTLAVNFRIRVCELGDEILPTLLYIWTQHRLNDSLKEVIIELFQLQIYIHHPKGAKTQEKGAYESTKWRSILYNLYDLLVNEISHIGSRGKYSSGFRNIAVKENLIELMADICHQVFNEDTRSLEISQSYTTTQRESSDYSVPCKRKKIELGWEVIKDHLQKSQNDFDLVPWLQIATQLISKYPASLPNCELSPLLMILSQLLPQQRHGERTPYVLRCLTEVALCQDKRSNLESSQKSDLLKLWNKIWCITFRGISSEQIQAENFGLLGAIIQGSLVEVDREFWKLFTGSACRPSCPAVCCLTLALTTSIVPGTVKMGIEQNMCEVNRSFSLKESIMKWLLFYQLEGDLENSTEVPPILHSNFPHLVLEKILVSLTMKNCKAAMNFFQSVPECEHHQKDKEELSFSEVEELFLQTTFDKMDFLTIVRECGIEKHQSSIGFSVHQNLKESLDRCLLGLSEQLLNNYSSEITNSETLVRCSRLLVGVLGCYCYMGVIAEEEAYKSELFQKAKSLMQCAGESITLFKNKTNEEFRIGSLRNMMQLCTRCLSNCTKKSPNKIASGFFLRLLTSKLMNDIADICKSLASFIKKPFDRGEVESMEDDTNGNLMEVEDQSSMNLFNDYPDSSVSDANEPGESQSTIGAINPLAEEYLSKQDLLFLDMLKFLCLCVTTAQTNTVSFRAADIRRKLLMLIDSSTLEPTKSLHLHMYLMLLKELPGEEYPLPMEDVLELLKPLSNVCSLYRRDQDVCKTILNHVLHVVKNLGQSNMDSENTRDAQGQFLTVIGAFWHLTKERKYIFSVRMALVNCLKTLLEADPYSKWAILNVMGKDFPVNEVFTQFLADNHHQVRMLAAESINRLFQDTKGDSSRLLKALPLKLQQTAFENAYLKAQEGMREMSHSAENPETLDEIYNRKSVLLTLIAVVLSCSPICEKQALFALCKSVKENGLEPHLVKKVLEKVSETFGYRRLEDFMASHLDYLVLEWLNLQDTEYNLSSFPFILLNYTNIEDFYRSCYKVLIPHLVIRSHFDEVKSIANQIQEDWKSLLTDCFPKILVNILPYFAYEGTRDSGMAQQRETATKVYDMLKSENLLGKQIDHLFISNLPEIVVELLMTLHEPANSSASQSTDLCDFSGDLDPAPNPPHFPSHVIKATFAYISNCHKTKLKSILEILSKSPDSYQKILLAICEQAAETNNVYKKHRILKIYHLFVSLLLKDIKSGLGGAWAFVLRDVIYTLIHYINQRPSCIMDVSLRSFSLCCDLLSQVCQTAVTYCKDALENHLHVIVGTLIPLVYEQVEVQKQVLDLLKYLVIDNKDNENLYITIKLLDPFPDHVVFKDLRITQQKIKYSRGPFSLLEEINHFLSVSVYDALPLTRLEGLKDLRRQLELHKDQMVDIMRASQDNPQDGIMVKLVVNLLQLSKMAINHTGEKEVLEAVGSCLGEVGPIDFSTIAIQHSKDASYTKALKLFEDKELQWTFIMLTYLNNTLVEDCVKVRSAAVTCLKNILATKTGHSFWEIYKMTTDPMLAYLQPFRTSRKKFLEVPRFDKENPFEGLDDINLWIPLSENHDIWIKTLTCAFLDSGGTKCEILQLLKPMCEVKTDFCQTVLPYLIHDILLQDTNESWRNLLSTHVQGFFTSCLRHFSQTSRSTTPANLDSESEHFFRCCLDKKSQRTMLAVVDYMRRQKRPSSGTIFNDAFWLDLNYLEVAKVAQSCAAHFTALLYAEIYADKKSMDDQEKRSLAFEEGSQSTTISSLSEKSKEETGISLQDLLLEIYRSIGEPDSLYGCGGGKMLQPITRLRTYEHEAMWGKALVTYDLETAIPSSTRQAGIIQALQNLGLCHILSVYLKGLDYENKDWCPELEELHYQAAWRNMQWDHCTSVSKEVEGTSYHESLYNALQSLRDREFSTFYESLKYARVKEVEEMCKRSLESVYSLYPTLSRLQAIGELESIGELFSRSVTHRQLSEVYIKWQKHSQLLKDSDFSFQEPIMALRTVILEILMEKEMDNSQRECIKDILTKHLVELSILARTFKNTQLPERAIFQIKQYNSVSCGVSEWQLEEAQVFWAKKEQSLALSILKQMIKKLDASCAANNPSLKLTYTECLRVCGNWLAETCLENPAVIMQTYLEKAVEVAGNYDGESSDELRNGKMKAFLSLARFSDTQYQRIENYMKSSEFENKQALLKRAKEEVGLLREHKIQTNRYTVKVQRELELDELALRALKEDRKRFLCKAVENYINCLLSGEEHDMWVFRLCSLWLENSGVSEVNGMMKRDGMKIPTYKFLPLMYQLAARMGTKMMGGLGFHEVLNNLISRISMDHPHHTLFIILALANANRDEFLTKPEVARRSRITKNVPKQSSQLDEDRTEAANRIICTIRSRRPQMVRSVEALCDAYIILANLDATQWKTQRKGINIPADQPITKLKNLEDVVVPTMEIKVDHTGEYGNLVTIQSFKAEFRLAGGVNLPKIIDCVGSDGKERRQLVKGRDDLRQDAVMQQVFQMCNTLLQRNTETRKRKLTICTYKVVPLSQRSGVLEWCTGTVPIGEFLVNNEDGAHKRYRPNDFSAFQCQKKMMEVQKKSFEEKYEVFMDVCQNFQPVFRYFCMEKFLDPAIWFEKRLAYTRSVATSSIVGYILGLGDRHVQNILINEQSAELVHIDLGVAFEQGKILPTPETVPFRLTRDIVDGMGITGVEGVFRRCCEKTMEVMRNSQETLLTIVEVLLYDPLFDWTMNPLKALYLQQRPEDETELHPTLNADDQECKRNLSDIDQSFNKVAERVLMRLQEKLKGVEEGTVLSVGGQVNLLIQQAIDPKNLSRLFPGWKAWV
Summary of the method: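 NCI-H460 cells, compound 1 h pre-treatment, 8Gy IR, further 1 h at 37° C in 5% CO2. Read-out: phospho-Chk2 via AlphaScreen SureFire. % inhibition relative to IR-induced signal window (irradiated vs non-irradiated drug-free wells).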

| SMILES | IC50 |
| --- | --- |
| CC1CC(C)CN(CC(CO)Nc2ccc3c(c2)Sc2cccc(-c4cc(N5CCOCC5)cc(=O)[nH]4)c2S3)C1 (centres unmarked) [Example 1-37-5, 6-(7-((1-(3,5-Dimethylpiperidin-1-yl)-3-hydroxypropan-2-yl)amino)thianthren-1-yl)-4-morpholino pyridin-2 (1H)-one] | 100 to 500 nM |
| CC(Nc1ccc2c(c1)Sc1cccc(-c3cc(N4CCOCC4)cc(=O)[nH]3)c1S2)c1cc(C#N)ncn1 (centres unmarked) [Example 1-12-84, 6-(1-((6-(4-Morpholino-6-oxo-1,6-dihydropyridin-2-yl)thianthren-2-yl)amino)ethyl)pyrimidine-4-carbonitrile] | 100 to 500 nM |
| CC(C(=O)Nc1ccc2c(c1)Sc1cccc(-c3cc(N4CCOCC4)cc(=O)[nH]3)c1S2)N1CCOCC1 (centres unmarked) [Example 1-8, 2-Morpholino-N-(6-(4-morpholino-6-oxo-1,6-dihydropyridin-2-yl)thianthren-2-yl)propanamide] | 500 to 2000 nM |
| Cc1ccc(C(Nc2ccc3c(c2)Sc2cccc(-c4cc(N5CCOCC5)cc(=O)[nH]4)c2S3)C2CCCCC2)nc1 (centres unmarked) [Example 1-12-126, 6-(7-((Cyclohexyl(5-methylpyridin-2-yl)methyl)amino)thianthren-1-yl)-4-morpholino pyridin-2(1H)-one] | 500 to 2000 nM |
| Cc1ccc(C(CCN2CCCCC2)Nc2ccc3c(c2)Sc2cccc(-c4cc(N5CCOCC5)cc(=O)[nH]4)c2S3)nc1 (single isomer, unassigned) [Example 1-51-6, 6-(7-((1-(5-Methylpyridin-2-yl)-3-(piperidin-1-yl)propyl)amino)thianthren-1-yl)-4-morpholino pyridin-2(1H)-one] | < 100 nM |
| O=c1cc(N2CCOCC2)cc(-c2cccc3c2Sc2ccc(NC(CO)CN4CCCC4)cc2S3)[nH]1 (centres unmarked) [Example 1-37-3, 6-(7-((1-Hydroxy-3-(pyrrolidin-1-yl)propan-2-yl)amino)thianthren-1-yl)-4-morpholino pyridin-2(1H)-one] | 500 to 2000 nM |
| Cc1ccc(C(Nc2ccc3c(c2)Sc2cccc(-c4cc(N5CCOCC5)cc(=O)[nH]4)c2S3)C2CN(C)C2)nc1 (centres unmarked) [Example 1-22-8, 6-(7-(((1-Methylazetidin-3-yl)(5-methylpyridin-2-yl)methyl)amino)thianthren-1-yl)-4-morpholino pyridin-2 (1H)-one] | 100 to 500 nM |
| Cc1ccnc(C(CF)Nc2ccc3c(c2)Sc2cccc(-c4cc(N5CCOCC5)cc(=O)[nH]4)c2S3)c1 (centres unmarked) [Example 1-12-133, 6(7-((2-Fluoro-1-(4-methylpyridin-2-yl)ethyl)amino)thianthren-1-yl)-4-morpholino pyridin-2(1H)-one] | 100 to 500 nM |
| COC[C@H](CN1CCOCC1)Nc1ccc2c(c1)Sc1cccc(-c3cc(N4CCOCC4)cc(=O)[nH]3)c1O2 [Example 10-6, (S)-6-(8-((1-methoxy-3-morpholinopropan-2-yl)amino)phenoxathiin-4-yl)-4-morpholinopyridin-2(1H)-one] | 100 to 500 nM |
| CN(C)CC(=O)Nc1ccc2c(c1)Sc1cccc(-c3cc(N4CCOCC4)cc(=O)[nH]3)c1S2 [Example 1-7-1, 2-(dimethylamino)-N-(6-(4-morpholino-6-oxo-1,6-dihydropyridin-2-yl)thianthren-2-yl)acetamide] | 500 to 2000 nM |
| CNCC(Nc1ccc2c(c1)Sc1cccc(-c3cc(N4CCOCC4)cc(=O)[nH]3)c1S2)c1nccc(C)n1 (centres unmarked) [Example 1-16-5, 6-(7-((2-(Methylamino)-1-(4-methylpyrimidin-2-yl)ethyl)amino)thianthren-1-yl)-4-morpholinopyridin-2(1H)-one] | 500 to 2000 nM |
| CCC(Nc1ccc2c(c1)Sc1cccc(-c3cc(N4CCOCC4)cc(=O)[nH]3)c1S2)c1cncc(OC)c1 (centres unmarked) [Example 1-12-17, 6-(7-((1-(5-Methoxypyridin-3-yl)propyl)amino)thianthren-1-yl)-4-morpholino pyridin-2(1H)-one] | 100 to 500 nM |
| COc1cncc(C(CO)Nc2ccc3c(c2)Sc2cccc(-c4cc(N5CCOCC5)cc(=O)[nH]4)c2S3)n1 (centres unmarked) [Example 1-12-79, 6-(7-((2-Hydroxy-1-(6-methoxypyrazin-2-yl)ethyl)amino)thianthren-1-yl)-4-morpholino pyridin-2(1H)-one] | 100 to 500 nM |
| Cc1ccc(C(CCN(C)C)Nc2ccc3c(c2)Sc2cccc(-c4cc(N5CCOCC5)cc(=O)[nH]4)c2S3)nc1 (single isomer, unassigned) [Example 1-51-5, 6-(7-((3-(Dimethylamino)-1-(5-methylpyridin-2-yl)propyl)amino)thianthren-1-yl)-4-morpholino pyridin-2 (1H)-one] | < 100 nM |
| CCCC(Nc1ccc2c(c1)Sc1cccc(-c3cc(N4CCOCC4)cc(=O)[nH]3)c1S2)[C@H](C)N (stereo partly drawn) [Example 1-20-2, 6-(7-(((2S)-2-Aminohexan-3-yl)amino)thianthren-1-yl)-4-morpholino pyridin-2(1H)-one] | 100 to 500 nM |
| O=c1cc(N2CCOCC2)cc(-c2cccc3c2Sc2ccc(NC4CCN(C5CCCC5)C4)cc2S3)[nH]1 (centres unmarked) [Example 1-24-12, 6-(7-((1-Cyclopentylpyrrolidin-3-yl)amino)thianthren-1-yl)-4-morpholino pyridin-2(1H)-one] | 100 to 500 nM |
| O=c1cc(N2CCOCC2)cc(-c2cccc3c2Sc2ccc(NCc4cncc(-c5cccnc5)c4)cc2S3)[nH]1 [Example 1-12-21, 6-(7-(([3,3′-Bipyridin]-5-ylmethyl)amino)thianthren-1-yl)-4-morpholino pyridin-2 (1H)-one] | < 100 nM |
| COc1ccc(CCN2CCC(Nc3ccc4c(c3)Sc3cccc(-c5cc(N6CCOCC6)cc(=O)[nH]5)c3S4)CC2)cc1 [Example 1-27, 6-(7-((1-(4-methoxyphenethyl)piperidin-4-yl)amino)thianthren-1-yl)-4-morpholinopyridin-2(1H)-one] | 100 to 500 nM |

Second part, the molecule after the results:

| IC50 | SMILES |
| --- | --- |
| 500 to 2000 nM | CC(Nc1ccc2c(c1)Cc1cccc(-c3cc(N4CCOCC4)cc(=O)[nH]3)c1O2)c1cccnc1 (single isomer, unassigned) [Example 2-36-1, 4-morpholino-6-(7-((1-(pyridin-3-yl)ethyl)amino)-9H-xanthen-4-yl)pyridin-2(1H)-one] |
| 100 to 500 nM | CCOC(=O)c1cccc(CNc2ccc3c(c2)Cc2cccc(-c4cc(N5CCOCC5)cc(=O)[nH]4)c2O3)n1 [Example 2-14-73, Ethyl 6-(((5-(4-morpholino-6-oxo-1,6-dihydropyridin-2-yl)-9H-xanthen-2-yl)amino)methyl)picolinate] |
| 100 to 500 nM | CC(Nc1ccc2c(c1)Cc1cccc(-c3cc(N4CCOCC4)cc(=O)[nH]3)c1O2)c1cccc(F)n1 (single isomer, unassigned) [Example 2-14-87-2, 6-(7-((1-(6-fluoropyridin-2-yl)ethyl)amino)-9H-xanthen-4-yl)-4-morpholinopyridin-2(1H)-one] |
| 100 to 500 nM | O=c1cc(N2CCOCC2)cc(-c2cccc3c2Oc2ccc(NCc4ccco4)cc2C3)[nH]1 [Example 2-14-33, 6-(7-((Furan-2-ylmethyl)amino)-9H-xanthen-4-yl)-4-morpholino pyridin-2(1H)-one] |
| 100 to 500 nM | O=c1cc(N2CCOCC2)cc(-c2cccc3c2Sc2ccc(NCc4ccnc(N5CCOCC5)n4)cc2S3)[nH]1 [Example 1-12-41, 4-Morpholino-6-(7-(((2-morpholinopyrimidin-4-yl)methyl)amino)thianthren-1-yl)pyridin-2(1H)-one] |
| 100 to 500 nM | N#Cc1ccc(CNc2ccc3c(c2)Sc2cccc(-c4cc(N5CCOCC5)cc(=O)[nH]4)c2S3)s1 [Example 1-12-51, 5-(((6-(4-Morpholino-6-oxo-1,6-dihydropyridin-2-yl)thianthren-2-yl)amino)methyl)thiophene-2-carbonitrile] |
| 100 to 500 nM | Cc1cccc(C(CN)Nc2ccc3c(c2)Cc2cccc(-c4cc(N5CCOCC5)cc(=O)[nH]4)c2O3)n1 (centres unmarked) [Example 2-18, 6-(7-((2-Amino-1-(6-methylpyridin-2-yl)ethyl)amino)-9H-xanthen-4-yl)-4-morpholinopyridin-2(1H)-one] |
| 500 to 2000 nM | O=c1cc(N2CCOCC2)cc(-c2cccc3c2Oc2ccc(Nc4cccnc4)cc2C3)[nH]1 [Example 2-61, 4-Morpholino-6-(7-(pyridin-3-ylamino)-9H-xanthen-4-yl)pyridin-2(1H)-one] |
| 100 to 500 nM | O=c1cc(N2CCOCC2)cc(-c2cccc3c2Oc2ccc(NCc4cccc(C5CC5)n4)cc2C3)[nH]1 [Example 2-2-68, 6-(7-(((6-Cyclopropylpyridin-2-yl)methyl)amino)-9H-xanthen-4-yl)-4-morpholino pyridin-2(1H)-one] |
| 100 to 500 nM | CC(Nc1ccc2c(c1)Sc1cccc(-c3cc(N4CCOCC4)cc(=O)[nH]3)c1S2)c1cccc(CN2CCCCC2)n1 (centres unmarked) [Example 1-12-109, 4-Morpholino-6-(7-((1-(6-(piperidin-1-ylmethyl)pyridin-2-yl)ethyl)amino)thianthren-1-yl)pyridin-2 (1H)-one] |
| 100 to 500 nM | CN(C)c1nccc(CN2CCC(Nc3ccc4c(c3)Cc3cccc(-c5cc(N6CCOCC6)cc(=O)[nH]5)c3O4)CC2)n1 [Example 2-28-16, 6-(7-((1-((2-(Dimethylamino)pyrimidin-4-yl)methyl)piperidin-4-yl)amino)-9H-xanthen-4-yl)-4-morpholino pyridin-2(1H)-one] |
| 100 to 500 nM | COc1ccc(CCN2CCC(Nc3ccc4c(c3)Cc3ccnc(-c5cc(N6CCOCC6)cc(=O)[nH]5)c3O4)CC2)cc1 [Example 2-41-5, 6-(7-((1-(4-Methoxyphenethyl)piperidin-4-yl)amino)-5H-chromeno[2,3-c]pyridin-1-yl)-4-morpholino pyridin-2(1H)-one] |
| 100 to 500 nM | CNc1cncc(CNc2ccc3c(c2)Cc2cccc(-c4cc(N5CCOCC5)cc(=O)[nH]4)c2O3)c1 [Example 2-21-4, 6-(7-(((5-(Methylamino)pyridin-3-yl)methyl)amino)-9H-xanthen-4-yl)-4-morpholino pyridin-2(1H)-one] |
| 100 to 500 nM | CC(Nc1ccc2c(c1)Cc1cccc(-c3cc(N4CCOCC4)cc(=O)[nH]3)c1O2)c1cnccn1 (centres unmarked) [Example 2-14-77, 4-Morpholino-6-(7-((1-(pyrazin-2-yl)ethyl)amino)-9H-xanthen-4-yl)pyridin-2 (1H)-one] |

— patent US9586951B2 (FUJIFILM Corporation, priority 2013, dated 2017)
